The target of the experiment is T1, Recombinant human H-PGDS (Homo sapiens, UniProt O60760).
T1 construct: made in house; host or cells: E. coli
The experiment is described as follows: H-PGDS inhibitory activity (prostaglandin D2 production from prostaglandin H2, measured by LC-MS/MS). The class given is biochemical. Conditions: recombinant human H-PGDS 1.0 nM expressed in E. coli; prostaglandin H2 25 μM; preincubated 15 minutes on ice, reacted on ice for 1 minute; concentration that inhibits prostaglandin D2 production by 50%. On the procedure:
The H-PGDS inhibitory activity of each Example compound was measured according to the method reported by LIN, Jiang. et al. (NO 2007/041634).
Recombinant human H-PGDS (final concentration: 1.0 nM) expressed in E. coli was mixed in an assay buffer containing 20 mM Tris-HCl (pH 8.0), 2 mM magnesium chloride, 2 mM reduced glutathione, and 0.5 mg/mL γ-globulin, and 150 μL of the mixture was dispensed into a 8-strip PCR tube (BM Equipment Co., Ltd.). Test compounds (Example compounds) (16.5 μL) at various concentrations dissolved in DMSO were added and the mixture was preincubated for 15 minutes on ice.
Prostaglandin H2 (final concentration: 25 μM) (Cayman Chemical) was dispensed into another 8-strip PCR tube, and the solvent was dried and solidified using a vacuum concentrator (Thermo Fisher Scientific). To the dried and solidified prostaglandin H2 was added 50 μL of the assay buffer containing H-PGDS and each test compound after the preincubation, and the mixture was reacted on ice for 1 minute. 45 μL of this mixture was added to 45 μL of a stop solution (50 mM aqueous citric acid solution containing iron chloride at a final concentration of 4 mg/mL) to stop the reaction. Then, the reaction solution was deproteinized, added to a 96 square deep well plate (SHONANMARUHACHI STEC Co., Ltd.), and the prostaglandin D2 concentration in the reaction solution was measured by LC-MS/MS. ACQUITY (registered trademark) TQD (Waters) was used as a measuring instrument.
Prostaglandin Da production activity (f) in the group with each test compound when a value obtained by subtracting the amount of production of prostaglandin D2 in the group without enzyme, which is non-specific production of prostaglandin D2, from the amount of production of prostaglandin Da in the group without test compound (DMSO-addition group) in each 8-strip PCR tube is 100% was calculated.

T1 sequence (O60760 whole entry): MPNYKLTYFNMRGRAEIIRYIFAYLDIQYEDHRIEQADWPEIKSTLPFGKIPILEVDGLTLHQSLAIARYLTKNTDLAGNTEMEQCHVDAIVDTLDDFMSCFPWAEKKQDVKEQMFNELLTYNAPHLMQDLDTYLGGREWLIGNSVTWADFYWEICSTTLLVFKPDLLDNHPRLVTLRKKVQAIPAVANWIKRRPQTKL

For orientation: IC50 means the concentration needed to halve the response being measured. `O=C(N[C@@H]1CN(c2ncc(CO)cn2)C[C@H]1F)c1ccc(-c2nccc3occc23)cc1` [Example 203, N-{(3R,4R)-4-fluoro-1-[5-(hydroxymethyl)pyrimidin-2-yl]pyrrolidin-3-yl}-4-(furo[3,2-c]pyridin-4-yl)benzamide]: the 50% inhibitory concentration (IC50) amounted to 1.9 nM.

Turning to `CCCn1ccc(CNC(=O)c2ccc(-c3nccc4[nH]ccc34)cc2)n1` [Example 44, N-[(1-propyl-1H-pyrazol-3-yl)methyl]-4-(1H-pyrrolo[3,2-c]pyridin-4-yl)benzamide], the IC50 was found to be 0.98 nM. For the molecule `O=C(NC1CCN(c2cccnn2)CC1)c1ccc(-c2nccc3occc23)cc1` [Example 190, 4-(furo[3,2-c]pyridin-4-yl)-N-[1-(pyridazin-3-yl)piperidin-4-yl]benzamide], the half-inhibitory concentration (IC50) was 0.76 nM.

Regarding `O=C(N[C@H]1CCN(c2ncc(CO)cn2)C1)c1ccc(-c2nccc3occc23)cc1` [Example 193, (S)-4-(furo[3,2-c]pyridin-4-yl)-N-{1-[5-(hydroxymethyl)pyrimidin-2-yl]pyrrolidin-3-yl}benzamide], the IC50 amounted to 1 nM. For the molecule `O=C(NC1C2CC3CC1CC(O)(C3)C2)c1ccc(-c2nccc3occc23)cc1` (stereo not drawn) [Example 272, 4-(furo[3,2-c]pyridin-4-yl)-N-(trans-5-hydroxyadamantan-2-yl)benzamide], the IC50 came out at 2.4 nM. For `O=C(NC1CCC1)c1ccc(-c2nccc3occc23)cc1` [Example 86, N-cyclobutyl-4-(furo[3,2-c]pyridin-4-yl)benzamide], the concentration for half-maximal inhibition (IC50) is 21 nM. As to `O=C(NC12CCC(O)(CC1)C2)c1ccc(-c2nccc3occc23)cc1` [Example 349, 4-(furo[3,2-c]pyridin-4-yl)-N-(4-hydroxybicyclo[2.2.1]heptan-1 yl)benzamide], the IC50 is 1.5 nM. In the case of `CC(C)NC(=O)c1ccc(-c2nccc3[nH]ccc23)cc1` [Example 15, N-isopropyl-4-(1H-pyrrolo[3,2-c]pyridin-4-yl)benzamide] it was 0.99 nM; in that of `CC(C)(O)[C@H]1CC[C@H](NC(=O)c2ccc(-c3nccc4occc34)c(Cl)c2)CC1` [Example 131, 3-chloro-4-(furo[3,2-c]pyridin-4-yl)-N-[trans-4-(2-hydroxypropan-2-yl)cyclohexyl]benzamide], 26 nM. Turning to `O=C(NCc1cnn(CC(F)(F)F)c1)c1ccc(-c2nccc3[nH]ccc23)cc1` [Example 43, 4-(1H-pyrrolo[3,2-c]pyridin-4-yl)-N-{[1-(2,2,2-trifluoroethyl)-1H-pyrazol-4-yl]methyl} benzamide], the IC50 was determined as 1.3 nM.

On to `O=C(N[C@H]1CC[C@H](OCC2(O)CC2)CC1)c1ccc(-c2nccc3occc23)cc1` [Example 258, 4-(furo[3,2-c]pyridin-4-yl)-N-{trans-4-[(1-hydroxycyclopropyl)methoxy]cyclohexyl}benzamide], for which the IC50 turned out to be 0.93 nM.

For `CN(C)c1ccnc(N2CCC(NC(=O)c3ccc(-c4nccc5occc45)cc3)CC2)n1` [Example 161, N-{1-[4-(dimethylamino)pyrimidin-2-yl]piperidin-4-yl}-4-(furo[3,2-c]pyridin-4-yl)benzamide], the 50% inhibitory concentration (IC50) amounted to 2 nM.

`O=C(N[C@H]1CCCC[C@H]1O)c1ccc(-c2nccc3occc23)cc1` (relative stereo) [Example 273, 4-(furo[3,2-c]pyridin-4-yl)-N-(cis-2-hydroxycyclohexyl)benzamide]: the IC50 worked out at 2.8 nM.

`CC(C)(O)[C@H]1CC[C@H](NC(=O)c2ccc(-c3nc(C(N)=O)cc4occc34)cc2)CC1` [Example 318, 4-(4-{[trans-4-(2-hydroxypropan-2-yl)cyclohexyl]carbamoyl}phenyl)furo[3,2-c]pyridine-6-carboxamide]: the concentration for half-maximal inhibition (IC50) stood at 367 nM. As for `[2H]C([2H])(O)c1cc2occc2c(-c2ccc(C(=O)N[C@H]3CC[C@H](C(C)(C)O)CC3)cc2)n1` [Example 320, 4-[6-(hydroxymethyl-d2)furo[3,2-c]pyridin-4-yl]-N-[trans-4-(2-hydroxypropan-2-yl)cyclohexyl]benzamide], the half-maximal inhibitory concentration (IC50) stood at 0.9 nM. For `CC(O)CNC(=O)c1ccc(-c2nccc3occc23)cc1` (stereo not shown) [Example 68, 4-(furo[3,2-c]pyridin-4-yl)-N-(2-hydroxypropyl) benzamide], the half-inhibitory concentration (IC50) stood at 15 nM. Turning to `O=C(N[C@H]1CC[C@H](NCC(F)(F)F)CC1)c1ccc(-c2nccc3occc23)cc1` [Example 119, 4-(furo[3,2-c]pyridin-4-yl)-N-{trans-4-[(2,2,2-trifluoroethyl)amino]cyclohexyl}benzamide], the IC50 is 1.3 nM. In the case of `C=Cc1cc2occc2c(-c2ccc(C(=O)N[C@H]3CC[C@H](C(C)(C)O)CC3)cc2)n1` [Example 313, N-[trans-4-(2-hydroxypropan-2-yl)cyclohexyl]-4-(6-vinylfuro[3,2-c]pyridin-4-yl)benzamide] it was 169 nM. With `O=C(NC(CO)c1ccccn1)c1ccc(-c2nccc3occc23)cc1` (stereo not shown) [Example 220, 4-(furo[3,2-c]pyridin-4-yl)-N-[2-hydroxy-1-(pyridin-2-yl)ethyl]benzamide], the half-inhibitory concentration (IC50) was found to be 68 nM. Regarding `CCOC(=O)c1cnc(N2CCC(NC(=O)c3ccc(-c4nccc5occc45)cc3)CC2)o1` [Example 254, ethyl 2-{4-[4-(furo[3,2-c]pyridin-4-yl)benzamide]piperidin-1-yl]oxazole-5-carboxylate], the IC50 is 4 nM. In the case of `O=C(Nc1ccccn1)c1ccc(-c2nccc3occc23)cc1` [Example 107, 4-(furo[3,2-c]pyridin-4-yl)-N-(pyridin-2-yl)benzamide], the half-inhibitory concentration (IC50) worked out at 19 nM. For `Cn1cc(Br)c(CNC(=O)c2ccc(-c3nccc4[nH]ccc34)cc2)n1` [Example 50, N-[(4-bromo-1-methyl-1H-pyrazol-3-yl)methyl]-4-(1H-pyrrolo[3,2-c]pyridin-4-yl)benzamide], the IC50 was found to be 1.4 nM.

`COc1cnc(N2CCC(NC(=O)c3ccc(-c4nccc5occc45)cc3)CC2)nc1` [Example 168, 4-(furo[3,2-c]pyridin-4-yl)-N-[1-(5-methoxypyrimidin-2-yl)piperidin-4-yl]benzamide]: the IC50 came to 1.7 nM. The figure for `O=C(N[C@H]1CCN(c2ccnc(F)c2)C1)c1ccc(-c2nccc3occc23)cc1` [Example 196, (S)-N-[1-(2-fluoropyridin-4-yl)pyrrolidin-3-yl]-4-(furo[3,2-c]pyridin-4-yl)benzamide] is 1.5 nM; for `Cc1cc2occc2c(-c2ccc(C(=O)N[C@H]3CC[C@H](OCC(C)(C)O)CC3)cc2)n1` [Example 342, N-[trans-4-(2-hydroxy-2-methylpropoxy)cyclohexyl]-4-(6-methylfuro[3,2-c]pyridin-4-yl)benzamide] it is 3 nM; for `Cn1ccc(CNC(=O)c2ccc(-c3nccc4[nH]ccc34)cc2)n1` [Example 53, N-[(1-methyl-1H-pyrazol-3-yl)methyl]-4-(1H-pyrrolo[3,2-c]pyridin-4-yl)benzamide] it is 1.3 nM. Consider `Cc1ccnc(N2CCC(NC(=O)c3ccc(-c4nccc5occc45)cc3)CC2)c1` [Example 150, 4-(furo[3,2-c]pyridin-4-yl)-N-[1-(4-methylpyridin-2-yl)piperidin-4-yl]benzamide], for which the concentration for half-maximal inhibition (IC50) is 1.7 nM. Regarding `O=C(N[C@H]1CCN(c2ncccn2)C1)c1ccc(-c2nccc3occc23)c(F)c1` [Example 328, (S)-3-fluoro-4-(furo[3,2-c]pyridin-4-yl)-N-[1-(pyrimidin-2-yl)pyrrolidin-3-yl]benzamide], the IC50 is 0.74 nM.

The record behind these values is patent US20230339937A1, “CONDENSED RING COMPOUNDS THAT INHIBIT H-PGDS” (SATO PHARMACEUTICAL CO., LTD., priority 2020, published 2023).
